We go through two substances from PMC3390344, “Antibacterial Activity and Mechanism of a Scorpion Venom Peptide Derivative In Vitro and In Vivo” (PLoS ONE, 2012).

For one test, the system named is B. subtilis AB91021. The experiment in a line: MIC, broth microdilution (CLSI). It is filed as cell-based, Bacillus subtilis. Particulars: B. subtilis AB91021, Gram-positive, 96-well. The procedure:
S. aureus AB94004, S. aureus ATCC 25923, E. coli AB94012, E. coli ATCC 25922, Pseudomonas aeruginosa AB93066, Bacillus thuringiensis AB92037, Bacillus subtilis AB91021, and Micrococcus luteus AB93113 were purchased from the China Center of Type Culture Collection (CCTCC).
(§1) The MIC was determined via a microdilution assay in 96-well microtiter plates according to the broth microdilution guideline of Clinical and Laboratory Standards Institute (CLSI).

Test [1] deals with penicillin-resistant S. epidermidis (PRSE) P1389. Description: microbe, parasite or virus in culture. Particulars: P1389, penicillin resistant (PRSE) clinical isolate; repeated at least three times. The class given is cell-based. The procedure:
(§2) Clinical isolates were obtained from the 302nd military hospital of Beijing, China, including penicillin-resistant S. aureus (PRSA) P1383, penicillin-resistant S. epidermidis (PRSE) P1389, methicillin-resistant S. aureus (MRSA) P1381, P1386 and P1374, methicillin-resistant coagulase-negative Staphylococcus (MRCNS) P1369, and penicillin-sensitive S. epidermidis (PSSE) P1111.
as §1

The test system of test [2] is penicillin-resistant S. aureus (PRSA) P1383. Description: microbe, parasite or virus in culture. The class given is cell-based. Conditions: P1383, penicillin resistant (PRSA) clinical isolate; repeated at least three times. As to the method:
as §2, §1

The subject of test [3] is methicillin-resistant S. aureus (MRSA) P1374. The experiment in a line: microbe, parasite or virus in culture. The class given is cell-based. Conditions: P1374, methicillin resistant (MRSA) clinical isolate; repeated at least three times. The procedure:
as §2, §1

Test [4] concerns methicillin-resistant S. aureus (MRSA) P1381. Description: microbe, parasite or virus in culture. The class given is cell-based. Particulars: P1381, methicillin resistant (MRSA) clinical isolate; repeated at least three times. As to the method: as §2, §1
Test [5] deals with penicillin-sensitive S. epidermidis (PSSE) P1111. The experiment in a line: microbe, parasite or virus in culture. The class given is cell-based. Particulars: P1111, penicillin sensitive (PSSE) clinical isolate; repeated at least three times. The procedure: as §2, §1
Test [6] concerns methicillin-resistant S. aureus (MRSA) P1386. The experiment in a line: microbe, parasite or virus in culture. It is filed as cell-based. Conditions: P1386, methicillin resistant (MRSA) clinical isolate; repeated at least three times. As to the method: as §2, §1
In test [7] the test system is methicillin-resistant coagulase-negative Staphylococcus (MRCNS) P1369. Description: microbe, parasite or virus in culture. It is filed as cell-based. Conditions: P1369, methicillin resistant (MRCNS) clinical isolate; repeated at least three times. The procedure:
as §1

For another test, the system named is S. aureus AB94004. The experiment in a line: Bactericidal assay (time-killing). The class given is cell-based. Particulars: samples at 0, 5, 15, 30, 60 min, colony counts, average of three dishes. The procedure:
Figure 5 Bactericidal assays of the Kn2-7 and BmKn2 peptides against S. aureus and E. coli AB94012. Set point indicates untreated bacteria, and 0 minutes was defined as the time of the first sample collection, which was immediately after mixing bacteria and Kn2-7 or BmKn2. The other samples were collected at 5 min, 15 min, 30 min or 60 min. All of the counts were the average of three dishes, and the experiment was repeated at least three times. (A) Time-killing curve of Kn2-7 against S. aureus AB94004. (B) Time-killing curve of BmKn2 against S. aureus AB94004. (C) Time-killing curve of Kn2-7 against E. coli AB94012.
Bactericidal curves for Kn2-7 and BmKn2 were determined against S. aureus AB94004 and E. coli AB94012. A 400 µl aliquot of the peptide solution was added to 1,600 µl of a bacterial suspension. At each time point, 200 µl of the treated bacterial suspension was transferred to a sterilized 1.5-ml tube. After centrifugation at 1,000×g for 5 min, the supernatant was removed, and the pellet was resuspended in 200 µl of LB medium. The bacterial suspensions were placed on agar plates and incubated at 37°C until viable colonies could be counted.

The next test in a line: Biolayer interferometry. Particulars: 10 µg/mL biotinylated peptide on biosensor tips, 500 µg/mL LPS, 10 mM HEPES pH 7.4, 0.14 M NaCl, 30°C. The class given is binding, E. coli. As to the method: Figure 7 Binding assay of Kn2-7 and LTA or LPS. (A) Interaction of 10 µg/ml of Kn2-7 with 500 µg/ml of LPS or 500 µg/mL of LTA. Curve A3 is LPS, curve B3 is LTA and curve C3 is buffer. (B) Interaction of 10 µg/mL of BmKn2 with 500 µg/mL of LPS or 500 µg/mL of LTA. Curve D3 is LPS, curve E3 is LTA and curve F3 is the buffer. (C) MICs of Kn2-7 and BmKn2 treated with LTA or LPS against S. aureus and E. coli.
Biolayer Interferometry (BLI) experiments were performed on OCT RED (FortéBio, Inc.). A total of 500 µg/mL of lipoteichoic acid from S. aureus (LTA, Sigma, L2515), lipopolysaccharides from E. coli (LPS, Sigma, L2880) or buffer (10 mM HEPES, pH 7.4 and 0.14 M NaCl) was dispensed into 96-well microtiter plates at a volume of 200 µl per well. The operating temperature was 30°C. Biosensor tips (FortéBio, Inc., Menlo Park, CA) were pre-wetted with the buffer for 60 seconds at baseline. Then, 10 µg/mL Biotin-Kn2-7 or Biotin-BmKn2 was loaded onto the biosensor tips for 900 seconds. Baseline 2 was subsequently established for 300 seconds. Dissociation of Kn2-7 or BmKn2 occurred for 900 seconds in the buffer. Data were generated automatically by the Octet® User Software (version 3.1) and were subsequently analyzed from the resultant text files using Excel 2000.
On the technique in general: BLI is a label-free optical method that tracks binding on a fibre tip over time.

Ends that are not written are not given here.

Regarding FIGAIARLLSKIF-NH2 [BmKn2], the MIC in the test on B. subtilis AB91021 worked out at 12.5 µg/mL; in test [1], 12.5 µg/mL; in [2] it was 12.5 µg/mL; in [3], 12.5 µg/mL; in [4], 12.5 µg/mL; in test [5], 6.25 µg/mL. In addition, the MIC in [6] and in test [7] was 12.5 µg/mL each time.
Consider FIKRIARLLRKIF [Kn2-7], for which the “Bactericidal effect (time-killing curve)” value in the test with S. aureus AB94004 is “bactericidal effects”. The “Binding to LPS (BLI)” value in “Biolayer interferometry” was “able to bind to LPS”.
